Test results from ChEMBL document CHEMBL1208756, “LuxR-dependent quorum sensing: computer aided discovery of new inhibitors structurally unrelated to N-acylhomoserine lactones” (Bioorg Med Chem Lett, 2010).
Calls of active or inactive are those of the source. No cut-off for these calls is given here.

Tests used:
[1] = target: T1, Transcriptional activator protein LuxR (Aliivibrio fischeri) (UniProt P12746); experiment: Induction of LuxR-dependent quorum sensing in Vibrio fischeri assessed as induction of bioluminescence intensity up to 200 uM
T1 sequence (whole entry): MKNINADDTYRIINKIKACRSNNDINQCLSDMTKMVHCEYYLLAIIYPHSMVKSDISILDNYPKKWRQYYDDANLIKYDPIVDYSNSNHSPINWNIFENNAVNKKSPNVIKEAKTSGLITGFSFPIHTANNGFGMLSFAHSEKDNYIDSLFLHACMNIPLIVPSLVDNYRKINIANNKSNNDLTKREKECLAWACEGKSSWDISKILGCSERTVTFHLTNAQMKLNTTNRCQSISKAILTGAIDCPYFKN

[2] = target: T2, Transcriptional activator protein LuxR (Aliivibrio fischeri, UniProt P12746); experiment: Inhibition of LuxR-dependent quorum sensing in Vibrio fischeri assessed as reduction of 3-oxo-C6-HSL-induced bioluminescence intensity
T2 sequence (P12746 whole entry): T1 sequence (whole entry)

[3] = target: T1, Transcriptional activator protein LuxR (Aliivibrio fischeri); experiment: Inhibition of LuxR-dependent quorum sensing in Vibrio fischeri assessed as reduction of 3-oxo-C6-HSL-induced bioluminescence intensity at 20 uM
[4] = target: T1, Transcriptional activator protein LuxR (Aliivibrio fischeri); experiment: Inhibition of LuxR-dependent quorum sensing in Vibrio fischeri assessed as reduction of 3-oxo-C6-HSL-induced bioluminescence intensity at 40 uM

SMILES | Activity [1] | IC50 [2] [µM] | inhibition [3] [%] | inhibition [4] [%]
Clc1ccc(C(c2ccc(Cl)cc2)[n+]2ccn(CC(OCc3ccc(Cl)cc3Cl)c3ccc(Cl)cc3Cl)c2)cc1 (centres undefined) | inactive |  |  | 
Clc1ccc(C(c2ccc(Cl)cc2)n2cc[n+](CC(OCc3ccc(Cl)cc3Cl)c3ccc(Cl)cc3Cl)c2)cc1 (centres undefined) [CALMIDAZOLIUM CHLORIDE] |  | 7 |  | 
CC(NCCC(c1ccccc1)c1ccccc1)c1ccccc1 (centres undefined) [FENDILINE] | inactive | 91 |  | 
CN1CCC(=C2c3ccccc3Sc3ccccc32)CC1 [PIMETHIXENE] | inactive | 56 |  | 
CN[C@H]1CC[C@@H](c2ccc(Cl)c(Cl)c2)c2ccccc21 [SERTRALINE] | inactive | 27 |  | 
CC/C(=C(\c1ccccc1)c1ccc(OCCN(C)C)cc1)c1ccccc1 [TAMOXIFEN] | inactive | 40 | 73.6 | 53
CC(C)(C)c1ccc(C(O)CCCN2CCC(C(O)(c3ccccc3)c3ccccc3)CC2)cc1 (centres undefined) [TERFENADINE] | inactive | 92 |  | 
